Results from patent publication US9340577B2, “HLA binding motifs and peptides and their uses” (priority 1992, dated 2016).
No end group written: not given here.

Key:
HLA-A1 (A*0101) = HLA-A1 (A*0101) (Homo sapiens, UniProt P04439, A114D/A174V/A182V/D101N/D185E/E176A/E190D/L180R/Q94H/R68K/S129P/T187R/V100A/V91M/W191G); assay: biochemical; assay type: binding
A2.1 HLA molecules = A2.1 HLA molecules (Homo sapiens, UniProt P04439, D140Y/D185E/D98H/E176V/E277Q/G131W/G231S/I119V/I121R/I166T/I218V/L300P/L318F/N151K/N90K/P208A/P217A/Q86G/Q94H/R138H/R169H/T345S); assay type: binding; set-up: A*0201 / A2.1 Binding / A2 Bind. / A2 / A2.1 (binding capacity): scale not given here
DRB1*0405 = DRB1*0405 (Homo sapiens, UniProt P01903+P01911, A100R/A169T/D86S/F76Y/I96L/K127E/L162R/M171V/N62H/P40V/Q125Y/R42H/S133A/S149N/S66Y/V115G/V209L/W38E); assay: biochemical; assay type: binding
DR1 (DRB1*0101) = DR1 (DRB1*0101) (Homo sapiens, UniProt P01903+P01911, A100R/D57E/F55L/F60I/F76Y/I96L/L162R/M171V/P40L/Q125E/R42F/V115G/Y59C); assay: biochemical; assay type: binding
DRB1*0901 = DRB1*0901 (Homo sapiens, UniProt P01903+P01911, A100R/A103E/D57H/D86V/F55Y/F60I/F76Y/I96F/K127E/L162R/M171V/P40D/Q125H/Q99R/R33Q/R42F/S133A/S66N/T210M/V115G/W38K/Y107V/Y59G/Y89S); assay: biochemical; assay type: binding
DRB1*1501 = DRB1*1501 (Homo sapiens, UniProt P01903+P01911); assay: biochemical; assay type: binding
DRB5*0101 = DRB5*0101 (Homo sapiens, UniProt P01903+Q30154); assay: biochemical; conditions: Binding affinity DRB5 *0101
DRB1*1101 = DRB1*1101 (Homo sapiens, UniProt P01903+P01911, A100R/A169T/A87E/I96F/K41T/L162R/M171V/P40S/Q125H/Q178H/Q39Y/Q99D/R42S/S66Y/T262R/V115G/W38E); assay: biochemical; conditions: Binding affinity DRB1 *1101
DR7 (DRB1*0701) = DR7 (DRB1*0701) (Homo sapiens, UniProt P01903+P01911, A100R/A102G/A103Q/D57E/D86V/E43K/F76Y/K127E/L162R/M171V/P40G/Q125H/Q99D/R33Q/R42Y/R54Q/S133A/S66F/T210M/V115G/Y107V/Y59L/Y89S); assay: biochemical; assay type: binding
DRB1*0802 = DRB1*0802 (Homo sapiens, UniProt P01903+P01911, A100R/A103L/A169T/F76Y/H45Y/I96F/K41T/L162R/M171V/P40S/Q125H/Q178H/Q39Y/Q99D/R218S/R42G/S66Y/V115G/W38E); assay: biochemical; assay type: binding
DRB1*1302 = DRB1*1302 (Homo sapiens, UniProt P01903+P01911, A100E/A169T/K41T/L162R/M171V/P40S/Q125H/Q178H/Q39Y/Q99D/R42S/S66N/T262R/V115G/W38E/Y61H); assay: biochemical; assay type: binding
HLA-A11 (A*1101) = HLA-A11 (A*1101) (Homo sapiens, UniProt P04439, A114D/D185E/E176A/F33Y/L180Q/S129P/T187R); assay: biochemical; assay type: binding
HLA-A3.2 (A*0301) = HLA-A3.2 (A*0301) (Homo sapiens, UniProt P04439); assay: biochemical; assay type: binding; conditions: HPV 16 E6/E7 9-mers
A*0203 = A*0203 (Homo sapiens, UniProt P04439, A173T/D140Y/D185E/D98H/E277Q/G131W/G231S/I119V/I121R/I166T/I218V/L180W/L300P/L318F/N151K/N90K/P208A/P217A/Q86G/Q94H/R138H/R169H/T345S); assay: biochemical; assay type: binding
A*0206 = A*0206 (Homo sapiens, UniProt P04439, D140Y/D185E/D98H/E176V/E277Q/F33Y/G131W/G231S/I119V/I121R/I166T/I218V/L300P/L318F/N151K/N90K/P208A/P217A/Q86G/Q94H/R138H/R169H/T345S); assay: biochemical; assay type: binding
HLA-A*0201 (HLA-A2.1) = HLA-A*0201 (HLA-A2.1) (Homo sapiens, UniProt P04439, D140Y/D185E/D98H/E176V/E277Q/G131W/G231S/I119V/I121R/I166T/I218V/L300P/L318F/N151K/N90K/P208A/P217A/Q86G/Q94H/R138H/R169H/T345S); assay: biochemical; assay type: binding
A*6802 = A*6802 (Homo sapiens, UniProt P04439, A269V/D140Y/D185E/E176V/E277Q/E87N/F33Y/G231S/I121R/I166T/I218V/L180W/L300P/L318F/N151K/P208A/P217A/Q86R/R138H/R169H/S129P/T345S/V36M); assay: biochemical; assay type: binding
A*0202 = A*0202 (Homo sapiens, UniProt P04439, D140Y/D185E/D98H/E176V/E277Q/G131W/G231S/I119L/I121R/I166T/I218V/L180W/L300P/L318F/N151K/N90K/P208A/P217A/Q67R/Q86G/Q94H/R138H/R169H/T345S); assay: biochemical; assay type: binding

Chain of DRB1*1302 (P01903 26-254 limits assumed, other chains not shown): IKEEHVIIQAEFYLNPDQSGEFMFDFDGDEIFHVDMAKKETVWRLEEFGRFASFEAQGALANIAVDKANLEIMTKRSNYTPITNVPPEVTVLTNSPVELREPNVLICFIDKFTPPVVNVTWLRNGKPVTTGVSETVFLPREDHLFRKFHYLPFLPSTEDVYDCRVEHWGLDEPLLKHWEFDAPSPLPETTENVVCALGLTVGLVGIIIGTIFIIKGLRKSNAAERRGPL
Chain of DRB1*1101 (P01903 26-254 limits assumed, other chains not shown): as above

Sequence	A1 (HLA-A1 (A*0101))	A2 Bind. (A2.1 HLA molecules)	IC50 (A*0203)	IC50 (A*0206)	IC50 (HLA-A*0201 (HLA-A2.1))	IC50 (A*6802)	IC50 (A*0202)	also measured
LLYKLDIVSI	0.0245	0.0245						
MLQLTVWGI	0.2450	0.2450						
NTEVETQQMLQVEGR [Peptide 89.0002]								IC50 (DRB1*0405): > 20000 nM; IC50 (DR1 (DRB1*0101)): 4980 nM; IC50 (DRB1*0901): > 20000 nM; IC50 (DRB1*1501): 15500 nM; IC50 (DRB5*0101): > 20000 nM; IC50 (DRB1*1101): > 20000 nM; IC50 (DR7 (DRB1*0701)): 1850 nM; IC50 (DRB1*0802): > 20000 nM; IC50 (DRB1*1302): 2330 nM
RFEDPTRRPY [Peptide 78.0005]								IC50 (HLA-A1 (A*0101)): 19200 nM
RMYGVLPWI	0.1650	0.1650						
RVIEVLQRA	0.1963	0.1963						
SLCADARMYGV	0.0140	0.0140						
SLLNATDIAV	0.1050	0.1050						
SLLTFMIAA	0.5300	0.5300						
TIIVHLNESV	0.0350	0.0350						
TLQCKIKQII	0.0200	0.0200						
TVWGIKQLQA	0.0150	0.0150						
VADKALKFY [Peptide E6-69]								binding class for HLA-A11.2 (HLA-A11 (A*1101)): weak affinity; binding to HLA-A11.2 (in words) (HLA-A11 (A*1101)): bound; binding to HLA-A1 (in words) (HLA-A1 (A*0101)): bound; binding to HLA-A3.2 (in words) (HLA-A3.2 (A*0301)): bound
WALTVVWLL	0.0415							
WLWYIKIFI	0.0355	0.0355						
YLCGIQNSVSA [Peptide 9013.0338]			180 nM	513 nM	208 nM	9160 nM	21 nM	
YLWWVNNQSV [Peptide 9013.0197]			4.2 nM	65 nM	8.9 nM	17 nM	1.2 nM	
YLYYRPGVNL [Peptide 9013.0209]			2.8 nM	940 nM	54 nM	953 nM	2.2 nM	
YSDIRELRHY [Peptide 86.0055]								IC50 (HLA-A1 (A*0101)): 9.9 nM
YTCGIQNSV [Peptide 9013.0096]			310 nM	342 nM	1970 nM	140 nM	71 nM	
YTNWGEIYI [Peptide 1578.49]			82 nM	700 nM	293 nM	24 nM	10 nM	
YTNWSEIYI [Peptide 1578.56]			47 nM	216 nM	61 nM	5 nM	3.6 nM	
YVAWKYIYY [Peptide 88.0433]								IC50 (HLA-A1 (A*0101)): 310 nM
YVIGTQQAV [Peptide 9013.0024]			6.2 nM	84 nM	160 nM	3 nM	3.2 nM	
YVSGANLNL [Peptide 9013.0100]			75 nM	230 nM	6160 nM	374 nM	13 nM	
